From patent publication USRE44733E1, “6-mercapto-cyclodextrin derivatives:reversal agents for drug-induced neuromuscular block” (Merck Sharp & Dohme B.V., priority 1999, dated 2014)

Tested on: neuromuscular block, induced by the muscle relaxant rocuronium bromide (Roc)
Experiment: Reversal of neuromuscular blockade in anaesthetized guinea pigs in vivo
Conditions: for concentration at maximum reversal (at conc.) / % max reversal: anaesthetized guinea pigs, rocuronium bromide steady-state block; for concentration at maximum reversal (at conc.): dose of reversal agent at which % max reversal was seen; for % max reversal: maximum reversal; for ED50: dose producing 50% reversal of steady-state neuromuscular block: anaesthetized male Dunkin-Hartley guinea pigs, steady-state block of 85-90% by continuous rocuronium bromide infusion, reversal agent given by jugular vein catheter, M. gastrocnemius contractions
Protocol: Reversal of Neuromuscular Blockade in Anaesthetized Guinea Pigs in vivo
Male Dunkin-Hartley guinea pigs (bodyweight: 600-900 g) were anaesthetized by i.p. administration of 10 mg/kg pentobarbitone and 1000 mg/kg urethane. After tracheotomy, the animals were artificially ventilated using a Harvard small animal ventilator. A catheter was placed into the carotid artery for continuous monitoring of arterial blood pressure and the taking of blood samples for blood gas analysis. Heart rate was derived from the blood pressure signal. The sciatic nerve was stimulated (rectangular pulses of 0.5 ms duration at 10 s (0.1 Hz) intervals at a supramaximal voltage, using a Grass S88 Stimulator) and the force of M. gastrocnemius contractions was measured using a Grass FT03 force-displacement transducer. Contractions, blood pressure and heart rate were recorded on a multichannel Grass 7D recorder. Catheters were placed in both jugular veins. One catheter was used for the continuous infusion of a neuromuscular blocking agent. The infusion rate of the neuromuscular blocking agent was increased until a steady-state block of 85-90% was obtained. The other catheter was used for administration of increasing doses of the reversal agent. During continuous infusion of the neuromuscular blocking agent, single doses of increasing concentration of reversal agent were given. At the end of the experiment, the measured force of muscle contractions was plotted against the concentration of reversal agent, and using regression analysis techniques, the 50% reversal concentration was calculated. Results for the reversal of the neuromuscular block, induced by the muscle relaxant rocuronium bromide (Roc), by the 6-mercapto-cyclodextrin derivatives of Examples 1-19 are presented in Table I. For comparison, the reversal activity of the parent compounds β-cyclodextrin and γ-cyclodextrin are included as well.

Structure (SMILES)	concentration at maximum reversal (at conc.)	% max reversal	ED50: dose producing 50% reversal of steady-state neuromuscular block
O=C([O-])c1ccc(SCC2OC3OC4C(CO)OC(OC5C(CO)OC(OC6C(CO)OC(OC7C(CO)OC(OC8C(CO)OC(OC9C(CO)OC(OC%10C(CO)OC(OC2C(O)C3O)C(O)C%10O)C(O)C9O)C(O)C8O)C(O)C7O)C(O)C6O)C(O)C5O)C(O)C4O)cc1.[Na+] (stereo not drawn) [example 1, 6-mono-Deoxy-6-mono-(4-carboxyphenyl)thio-γ-cyclodextrin, Sodium Salt]	(8.0) μmol · kg^−1	102%	0.94 µmol/kg
O=C([O-])c1ccccc1SC[C@H]1O[C@@H]2O[C@H]3[C@H](O)[C@@H](O)[C@@H](O[C@H]4[C@H](O)[C@@H](O)[C@@H](O[C@H]5[C@H](O)[C@@H](O)[C@@H](O[C@H]6[C@H](O)[C@@H](O)[C@@H](O[C@H]7[C@H](O)[C@@H](O)[C@@H](O[C@H]8[C@H](O)[C@@H](O)[C@@H](O[C@H]9[C@H](O)[C@@H](O)[C@@H](O[C@H]1[C@H](O)[C@H]2O)O[C@@H]9CO)O[C@@H]8CO)O[C@@H]7CO)O[C@@H]6CO)O[C@@H]5CO)O[C@@H]4CO)O[C@@H]3CO.[Na+] [example 2, 6mono-Deoxy-6-mono-(2-carboxyphenyl)thio-γ-cyclodextin, Sodium Salt]	(11) μmol · kg^−1	93%	1.30 µmol/kg
O=C([O-])c1cccc(SCC2OC3OC4C(CSc5cccc(C(=O)[O-])c5)OC(OC5C(CSc6cccc(C(=O)[O-])c6)OC(OC6C(CSc7cccc(C(=O)[O-])c7)OC(OC7C(CSc8cccc(C(=O)[O-])c8)OC(OC8C(CSc9cccc(C(=O)[O-])c9)OC(OC9C(CSc%10cccc(C(=O)[O-])c%10)OC(OC%10C(CSc%11cccc(C(=O)[O-])c%11)OC(OC2C(O)C3O)C(O)C%10O)C(O)C9O)C(O)C8O)C(O)C7O)C(O)C6O)C(O)C5O)C(O)C4O)c1.[Na+].[Na+].[Na+].[Na+].[Na+].[Na+].[Na+].[Na+] (stereo not drawn) [example 3, 6-Per-deoxy-6-per-(3-carboxyphenyl)thio-γ-cyclodextrin, Sodium Salt]	(1.28) μmol · kg^−1	102%	0.28 µmol/kg
O=C([O-])CCSC[C@H]1O[C@@H]2O[C@H]3[C@H](O)[C@@H](O)[C@@H](O[C@H]4[C@H](O)[C@@H](O)[C@@H](O[C@H]5[C@H](O)[C@@H](O)[C@@H](O[C@H]6[C@H](O)[C@@H](O)[C@@H](O[C@H]7[C@H](O)[C@@H](O)[C@@H](O[C@H]8[C@H](O)[C@@H](O)[C@@H](O[C@H]9[C@H](O)[C@@H](O)[C@@H](O[C@H]1[C@H](O)[C@H]2O)O[C@@H]9CSCCC(=O)[O-])O[C@@H]8CSCCC(=O)[O-])O[C@@H]7CSCCC(=O)[O-])O[C@@H]6CSCCC(=O)[O-])O[C@@H]5CSCCC(=O)[O-])O[C@@H]4CSCCC(=O)[O-])O[C@@H]3CSCCC(=O)[O-].[Na+].[Na+].[Na+].[Na+].[Na+].[Na+].[Na+].[Na+] [example 4, 6-Per-deoxy-6-per-(2-carboxyethyl)thio-γ-cyclodextrin, Sodium Salt]	(0.53) μmol · kg^−1	97%	0.09 µmol/kg
O=C([O-])CCCCCSC[C@H]1O[C@@H]2O[C@H]3[C@H](O)[C@@H](O)[C@@H](O[C@H]4[C@H](O)[C@@H](O)[C@@H](O[C@H]5[C@H](O)[C@@H](O)[C@@H](O[C@H]6[C@H](O)[C@@H](O)[C@@H](O[C@H]7[C@H](O)[C@@H](O)[C@@H](O[C@H]8[C@H](O)[C@@H](O)[C@@H](O[C@H]9[C@H](O)[C@@H](O)[C@@H](O[C@H]1[C@H](O)[C@H]2O)O[C@@H]9CSCCCCCC(=O)[O-])O[C@@H]8CSCCCCCC(=O)[O-])O[C@@H]7CSCCCCCC(=O)[O-])O[C@@H]6CSCCCCCC(=O)[O-])O[C@@H]5CSCCCCCC(=O)[O-])O[C@@H]4CSCCCCCC(=O)[O-])O[C@@H]3CSCCCCCC(=O)[O-].[Na+].[Na+].[Na+].[Na+].[Na+].[Na+].[Na+].[Na+] [example 5, 6-Per-deoxy-6-per-(5-carboxypentyl)thio-γ-cyclodextrin, Sodium Salt]	(2.5) μmol · kg^−1	78%	0.74 µmol/kg
O=C([O-])CCCSC[C@H]1O[C@@H]2O[C@H]3[C@H](O)[C@@H](O)[C@@H](O[C@H]4[C@H](O)[C@@H](O)[C@@H](O[C@H]5[C@H](O)[C@@H](O)[C@@H](O[C@H]6[C@H](O)[C@@H](O)[C@@H](O[C@H]7[C@H](O)[C@@H](O)[C@@H](O[C@H]8[C@H](O)[C@@H](O)[C@@H](O[C@H]9[C@H](O)[C@@H](O)[C@@H](O[C@H]1[C@H](O)[C@H]2O)O[C@@H]9CSCCCC(=O)[O-])O[C@@H]8CSCCCC(=O)[O-])O[C@@H]7CSCCCC(=O)[O-])O[C@@H]6CSCCCC(=O)[O-])O[C@@H]5CSCCCC(=O)[O-])O[C@@H]4CSCCCC(=O)[O-])O[C@@H]3CSCCCC(=O)[O-].[Na+].[Na+].[Na+].[Na+].[Na+].[Na+].[Na+].[Na+] [example 6, 6-Per-deoxy-6-per-(3carboxypropyl)thio-γ-cyclodextrin, Sodium Salt]	(0.48) μmol · kg^−1	108%	0.09 µmol/kg
O=C([O-])CSC[C@H]1O[C@@H]2O[C@H]3[C@H](O)[C@@H](O)[C@@H](O[C@H]4[C@H](O)[C@@H](O)[C@@H](O[C@H]5[C@H](O)[C@@H](O)[C@@H](O[C@H]6[C@H](O)[C@@H](O)[C@@H](O[C@H]7[C@H](O)[C@@H](O)[C@@H](O[C@H]8[C@H](O)[C@@H](O)[C@@H](O[C@H]9[C@H](O)[C@@H](O)[C@@H](O[C@H]1[C@H](O)[C@H]2O)O[C@@H]9CSCC(=O)[O-])O[C@@H]8CSCC(=O)[O-])O[C@@H]7CSCC(=O)[O-])O[C@@H]6CSCC(=O)[O-])O[C@@H]5CSCC(=O)[O-])O[C@@H]4CSCC(=O)[O-])O[C@@H]3CSCC(=O)[O-].[Na+].[Na+].[Na+].[Na+].[Na+].[Na+].[Na+].[Na+] [example 7, 6-Per-deoxy-6-per-carboxymethylthio-γ-cyclodextrin, Sodium Salt]	(1.92) μmol · kg^−1	88%	0.21 µmol/kg
